Assay results published in US6593324B2, “Dervatives of quinoline as alpha-2 antagonists” (Orion Corporation, priority 2000, dated 2003).

How the values were obtained:
male NMRI mice = assay: Antagonism of dexmedetomidine-induced locomotor inhibition; assay type: in vivo; details: various doses 20 min before dexmedetomidine 50 nmol/kg s.c.; activity measured 20 min after; atipamezole effective at 0.3 and 1.0 μmol/kg s.c. (p<0.01); FIG. 1
From the text: Dexmedetomidine and atipamezole are very potent and specific alpha-2 adrenoceptor agonists and antagonists, respectively, which lack alpha-2 subtype selectivity (H. Scheinin et al., European Journal of Pharmacology, Molecular Section, vol.151(1), 1988, p.35-42). The alpha-2 agonist-induced sedation is known to be an alpha-2A-mediated phenomenon that can be antagonised by alpha-2 antagonists (J. Sallinen et al., Mol. Pharmacol. Vol.51, 1997, p.36-46, and A. Haapalinna et al., Naunyn-Schimiedeberg's Arch. Pharmacol. Vol.356, 1997, p.570-582). The sedative effect of alpha-2 agonists in mice is measured by the inhibition on locomotor activity. Therefore, we compared the ability of Compound I and atipamezole to antagonise the dexmedetomidine-induced locomotor inhibition to evaluate the in vivo alpha-2A adrenoceptor antagonism (and alpha-2C selectivity) of these compounds.
Spontaneous locomotor activity of a total of 76 male NMRI mice (B&K, Sweden) was measured by placing individual animals into a polypropylene animal cage (38×22×15 cm). The cages were surrounded with an infrared photobeam frame system designed for activity measurements (Photobeam Activity System PAS, Cage Rack, San Diego Instruments, San Diego, Calif., USA). […] Spontaneous locomotor activity was measured 20 min after dexmedetomidine injection.

Balb/c mice = assay: Mouse forced swimming test; assay type: in vivo; details: 0.3 μmol/kg 40 min before test; activity between 2 and 6 min; Compound 1 p=0.013, atipamezole p=0.52; FIG. 2
From the text: This can be observed for example employing the forced swimming test, in which a rat or mouse is put into a water-filled cylinder. After a vigorous period of attempts to escape animals adopt an immobile floating posture; the extent of the immobile period is monitored and can be reduced by antidepressants and stress-protective agents. Transgenic mice that lack functional alpha-2C adrenoceptor tolerated swim-stress better than their similarly treated wild-type controls (J. Sallinen et al., Mol. Psychiatry, vol.4, 1999, p.443-452). Therefore, an increase in the forced swimming activity can be used as a measure of in vivo alpha-2C selective antagonism of a compound.
The forced swim test was conducted as originally described employing the stress sensitive (J. Crawley and L. Davis, Brain Research Bulletin, vol.8, 1982, p.609-612, and U.S. Pat. No. 5,902,807) Balb/c mouse strain (B&K, Sweden). The mice were administered either with vehicle (0.1% DMSO, 5 ml/kg subcutaneously), Compound 10.3 μmol/kg, or atipamezole 0.3 μmol/kg 40 min before putting the mice into a vessel (10 cm diameter, 18.5 cm height, filled with 25° C. water up to 8 cm height). The cumulative activity of each mouse was measured between 2 and 6 min after introduction to the vessel. Only vigorous attempts to escape (climbing) were registered. The mice (a total of 96) were tested only once.

test animals = details: literature report; cited from earlier work
brain = details: employed doses of atipamezole; literature report; cited from earlier work

Structure (SMILES)	antagonism of dexmedetomidine-induced sedation (locomotor inhibition) (male NMRI mice)	stress-protective effect: forced swimming activity (climbing) vs vehicle (Balb/c mice)	stress-protective effect (test animals)	neurochemical effect: noradrenaline release in brain (brain)
CCC1(c2cnc[nH]2)Cc2ccccc2C1 [atipamezole]	inhibited dexmedetomidine-induced sedation	did not have any clear effect on the activity	did not have a clear stress-protective effect	stimulate noradrenaline release in brain
CN1CCN(c2ccc(Nc3c4ccccc4nc4ccccc34)cc2)CC1 [Compound 1, Acridin-9-yl-[4-(4-methylpiperazin-1-yl)-phenyl]amine]	did not antagonise the alpha-2-agonist-induced sedation at all	tolerated clearly better stress-induced propagation of behavioural despair	–	–
